Test results taken from patent US6787672B2, “Substituted chalcones as therapeutic compounds” (Cancer Research Technology Limited, priority 2000, dated 2004).
Where two headings read alike, the source gives them in different places.

Assays:
[1] = system: breast cancer cell line MCF-7; assay: MTT assay, tumour cell growth inhibition, breast MCF-7; assay type: cell-based, human; details: for IC50: Homo sapiens, MCF7, Breast MCF-7, MTT, 96 h, read-out: IC50, dose required for 50% inhibition of tumour cell growth
Source text: (§1) The human tumour cell lines were the breast cancer cell line MCF-7, the colon cancer cell line HCT-116, and the lung cancer cell line A-549. The MTT assay was used, which exploits the ability of living cells to metabolise the water soluble tetrazolium salt 3-[4,5-dimethylthiazol-2yl-2,5-diphenyl tetrazolium bromide (MTT) into a water insoluble formazan precipitate (Carmichael et al, 1987). The purple precipitate can then be dissolved in an organic solvent and the optical density determined as a measure of cell survival. Compounds were tested concurrently for a true comparison.
(§2) The compound under study was dissolved in DMSO to yield a 10 mM stock solution. […] Cells were seeded into sterile flat-bottomed 96-well plates at a known initial seeding density (MCF-7 1.5×10E3, HCT-116 1×10E3, A549 2×10E3). The cells were plated in RPMI 1640 medium supplemented with 10% heat-inactivated Foetal Calf Serum solution. The plates were then incubated for 24 h at 37° C., 5% CO2 to allow cell adherence. 20 μl of the appropriate drug dilution (from serial dilutions in medium from 10 mM stock) was added to the wells (to give a final well volume of 200 μl). Plates were returned to the incubator for 96 h, and then 50 μl of MTT was added to each well. After a further 4 h incubation, the medium and any unconverted MTT was aspirated from the wells and the formazan precipitate dissolved by the addition of 100 μl of DMSO and several minutes agitation. The absorbance at A450 was then recorded on a plate reader, and the results expressed as a % survival of DMSO treated controls.

[2] = system: colon cancer cell line HCT-116; assay: MTT assay, tumour cell growth inhibition, colon HCT-116; assay type: cell-based, human; details: for IC50: Homo sapiens, Colon HCT-116, MTT, 96 h
Source text: as §1, §2

[3] = system: lung cancer cell line A-549; assay: MTT assay, tumour cell growth inhibition, lung A-549; assay type: cell-based, human; details: for IC50: Homo sapiens, A549, Lung A-549, MTT, 96 h, read-out: IC50, dose required for 50% inhibition of tumour cell growth
Source text: as §1, §2

CYP1B1 enzyme = molecular target: T1, CYP1B1 enzyme (Homo sapiens, UniProt Q16678); assay: Metabolism by microsomal preparation of human tumour tissue expressing CYP1B1, HPLC; assay type: in vitro ADME; details: human tumour microsomes, NADPH, 1 h, 37° C., pH 7.6
T1 construct: A microsomal preparation of human tumour tissue expressing the CYP1B1 enzyme was prepared; from tissue; host or cells: human tumour tissue (microsomal preparation)
T1 sequence (Q16678 1-543): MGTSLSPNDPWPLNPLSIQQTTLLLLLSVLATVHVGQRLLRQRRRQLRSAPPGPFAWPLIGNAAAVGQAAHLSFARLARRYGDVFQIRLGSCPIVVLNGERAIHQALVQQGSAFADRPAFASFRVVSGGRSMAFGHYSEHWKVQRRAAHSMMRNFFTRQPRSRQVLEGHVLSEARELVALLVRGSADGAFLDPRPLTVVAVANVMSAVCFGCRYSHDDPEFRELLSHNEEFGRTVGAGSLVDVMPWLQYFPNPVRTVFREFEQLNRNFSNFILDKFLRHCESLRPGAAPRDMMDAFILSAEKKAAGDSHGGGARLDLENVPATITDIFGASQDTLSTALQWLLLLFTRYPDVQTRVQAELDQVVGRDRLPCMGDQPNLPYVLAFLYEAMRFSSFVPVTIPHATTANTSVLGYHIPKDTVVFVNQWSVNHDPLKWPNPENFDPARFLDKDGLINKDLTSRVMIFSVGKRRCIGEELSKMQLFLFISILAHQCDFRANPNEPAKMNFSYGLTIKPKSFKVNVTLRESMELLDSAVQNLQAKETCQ
Description: A microsomal preparation of human tumour tissue expressing the CYP1B1 enzyme was prepared essentially as described by the method of Barrie et al., 1989. The experiment was carried out at 37° C., under yellow light. An array of 1.5 ml centrifuge tubes were set up in a water bath shaker-under aerobic conditions. To each tube was then added 500 μl of pH 7.6 buffer (0.1 M NaK2PO4), followed by NADPH (5 μl of a 25 mM stock solution). The microsomal preparation (80 μl) was then added and the tubes preincubated for 5 min at 37° C.
The prodrug substrate, compound II, was then added (10 μl of a 5 mM stock solution) and incubated for 1 h at 37° C. After 1 h the tubes were transferred to an ice/water cooling bath (0° C.). The tubes were then centrifuged at 15,000 rpm for 30 min. A sample of the supernatant (100 μl) was then taken and analysed by HPLC. HPLC conditions: Spherisorb C18 (25 cm×4.6 mm id), used without guard column. Flow rate 1 ml/min. Eluent 75% 0.1 M KH2PO4 and 25% acetonitrile.
The hydroxylated metabolite, compound III, was detected by HPLC, and confirmed by comparison with the authentic hydroxylated synthetic compound III.

splenocytes = assay: Splenocyte anti-proliferation assay (Con A stimulated, tritiated thymidine); assay type: cell-based; details: FIG. 1, triplicate
Source text: The anti-inflammatory effects of Compound II (DMU-120) were examined (in triplicate) using a splenocyte anti-proliferation assay.
The splenocyte anti-proliferation assay has been developed to identify compounds that have useful anti-inflammatory properties for the treatment of auto-inflammatory diseases such as rheumatoid arthritis. See, for example, Yamashita et al., 1994. This well known assay is described in detail in, for example, Mosmann, 1983. In this assay, splenocyte proliferation is stimulated by the inflammatory response inducer conconavilin A (Con A). Cell proliferation is monitored by detecting radiation (counts per minute, cpm) from a radio label (tritiated thymidine) which is incorporated only into proliferating cells.
The compound was assayed as a solution in dimethylsulfoxide (DMSO) as solvent. The solvent control is also shown for comparison. Other controls are also shown. “ConA” denotes the signal (cpm) detected for a control where cell proliferation is stimulated by ConA in the absence of a test compound. “Med” denotes the signal (cpm) detected for the cell culture medium alone. “Bkg” denotes the background radiation level (cpm).

[4] = read-out: IC50, dose required for 50% inhibition of tumour cell growth

IC50 [1] | IC50 [2, 4] | IC50 [3] | melting point | IC50 ([2]; read-out: IC50 against colon tumour cell line HCT-116, restated in nM) | SMILES | Selectivity Factor (Prodrug/Metabolite) ([1]; Breast MCF-7, IC50 Compound II / IC50 Compound III) | Selectivity Factor (Prodrug/Metabolite) ([2]; Colon HCT-116, IC50 Compound II / IC50 Compound III) | Selectivity Factor (Prodrug/Metabolite) ([3]; Lung A-549, IC50 Compound II / IC50 Compound III) | Metabolic conversion by CYP1B1 (aromatic hydroxylation) (CYP1B1 enzyme) | Concentration showing anti-inflammatory effects on splenocyte proliferation (splenocytes)
690 nM | 1200 nM | 6.6 µM | 87 to 88 °C |  | COc1ccc(/C=C/C(=O)c2cc(OC)cc(OC)c2)cc1 [Compound II, (E)-1-(4-Methoxyphenyl)-3-(3,5-dimethoxyphenyl)prop-1-en-3-one] | 1100 | 15000 | 80 | converted to the hydroxylated metabolite compound III | less than 10 μM
0.65 nM | 0.08 nM | 0.08 µM | 129 °C | 0.08 nM | COc1cc(OC)cc(C(=O)/C=C/c2ccc(OC)c(O)c2)c1 [Compound III, (E)-1-(3-Hydroxy-4-methoxyphenyl)-3-(3,5-dimethoxyphenyl)prop-1-en-3-one] |  |  |  |  | 
0.1 nM |  |  |  |  | COc1cc(OC)cc(C(=O)/C=C/c2ccc(OC)cc2OC)c1 [Compound IV, (E)-1-(2,4-dimethoxyphenyl)-3-(3,5-dimethoxyphenyl)prop-1-en-3-one] |  |  |  |  | 
